For series [1], the system named is platelet aggregation. Also on record: method as in PMID 20139357. The following applies: cited from earlier work.
The subject of series [2] is bleeding time models. Also on record: method as in PMID 20139357, PMID 15748242. Particulars: antithrombotic doses below the ED50 required for antithrombotic efficacy; cited from earlier work.
Series [3] deals with thrombin (Homo sapiens, UniProt P00734). Details: method as in PMID 20139357. Particulars: cited from earlier work.
Series [4] relates to rat. Also on record: method as in PMID 20139357, PMID 15748242. Particulars: higher doses, rat tail-bleeding time model; cited from earlier work.
The subject of series [5] is C57BL/6 mice. Briefly: FeCl3-induced arterial thrombosis mouse model. The format is in vivo. The following applies: FeCl3 injury, tirofiban 0.2 or 0.4 mg/kg (dose for this value not stated).
Series [6] has as its system mouse platelet-rich plasma (PRP). The series can be described thus: In vitro platelet aggregation induced by thrombin. Particulars: thrombin 3 U/mL. The format is cell-based. Here is the method:
(§1) To study the effects of compounds 1–5 on platelet aggregation, we used mouse platelet-rich plasma (PRP) induced with various agonists as an in vitro model.
(§2) Figure 5 Effects of compounds 1–4 on agonist-induced platelet aggregation in vitro. Platelet-rich plasma (PRP) was preincubated for 5 min with different concentrations of compounds 1–4, or vehicle. Platelet aggregation was initiated with ADP (A, 10 µM), U46619 (B, 6 µM), or thrombin (C, 3 U/mL). D = 0.2% DMSO used as the vehicle control. Data are presented as means ± SD of three independent experiments. ^* p < 0.05 vs. vehicle alone, analyzed by one-way ANOVA, followed by Tukey multiple comparison testing.
(§3) The in vitro platelet aggregation assay was performed according to a previously reported method, [39]. Platelet rich plasma (PRP) was incubated with the indicated concentration of each compound in DMSO for 1, 3, 5, or 10 min. Samples were subsequently stimulated by ADP (10 μM), U46619 (6 μM), or thrombin (3 U/mL). Platelet aggregation was recorded using an aggregometer (Chronolog, Havertown, PA, USA).

The target of series [7] is T1, α-Thrombin (Homo sapiens, UniProt P00734).
T1 construct: FXa converts prothrombin to thrombin; purchased Haematologic Technologies (Essex Junction, VT, USA)
Briefly: Chromogenic substrate assay, Ki determination, α-Thrombin. In kind it is biochemical. The following applies: substrate S-2238. How it is done: (§4) The inhibitor (I) constants (Ki) were determined for the inhibition of a series of human enzymes (FXa, thrombin, trypsin, plasmin, protein Ca, streptokinase, tPA, and urokinase) by each compound. Chromogenic substrate assays were performed using a Labsystems IEMS (Cergy Pontoise, France) microtiter plate reader. In each assay, the compound was tested at a minimum of seven concentrations in duplicate to obtain an inhibition curve. Assays were performed according to the following general procedure. In a 96-well microtiter plate, 25 μL of compound, inhibitor solution or buffer was added to 50 μL of substrate. A volume of 25 μL of enzyme solution was added just before the plate was placed in the microtiter plate reader for 1 h at 37 °C. The hydrolysis of the substrate yields p-nitroaniline, which was continuously monitored spectrophotometrically at 405 nm. Data were collected and the initial rate of substrate hydrolysis [Vo (mOD/minute)] was calculated. Following Michaelis-Menten kinetics, the affinity of the enzyme for the substrate, in the absence of the inhibitor (Km) and in the presence of an inhibitor (Kp), was determined to be the negative inverse x-intercept of Lineweaver–Burk plots. The dissociation constant for inhibition (Ki) was calculated using the following equation: Ki = (Km·[I])/(Kp − Km) as described by Williams and Morrison[40].

The target in series [8] is Trypsin. Briefly: Chromogenic substrate assay, Ki determination, Trypsin. In kind it is biochemical, human. Particulars: substrate S-2222. How it is done: as §4
Series [9] has as its system C57BL/6 mice. The series can be described thus: In vivo clotting time (aPTT after four daily injections). Details: species or system mouse. The following applies: daily intravenous injection for four consecutive days. Here is the method:
(§5) To evaluate the effects of compounds 1–5 on coagulation parameters ex vivo, we measured the influence of the isolated compounds on activated partial thromboplastin time (aPTT) and prothrombin time (PT). […] The average circulating blood volume for mice is 72 mL/kg[21]. Because the average weight of mice used in this study was 27 g and the average blood volume was 2 mL, the dose of compounds 1–5 (38.6, 77.2, or 193.1 µg/kg) equaled a peripheral blood concentration of approximately 1, 2, and 5 µM, respectively.
Figure 4 Effects of compounds 1–4 on clotting and bleeding time. (A) One hour after administration (intravenous injection) of compound 1 (white box), 2 (light gray box), 3 (dark gray box), or 4 (black box), blood was collected from the mice and platelet-poor plasma (PPP) was obtained by centrifugation at 2,000 × g for 10 min at room temperature to test ex vivo activated partial thromboplastin time (aPTT). (B) Each group received a daily intravenous injection of the indicated compound for four consecutive days. Fifteen minutes after the last administration, blood samples were collected and in vivo aPTT was measured. […] Accumulated bleeding times (including periods of re-bleeding) were recorded. […] Data are presented as means ± SD of three independent experiments. *p < 0.05 vs. vehicle alone, analyzed by one-way ANOVA, followed by Tukey multiple comparison testing.

The target of series [10] is Urokinase (Homo sapiens, UniProt P00749). The series can be described thus: Chromogenic substrate assay, Ki determination, Urokinase. The format is biochemical. Particulars: substrate S-2444. Here is the method: as §4
For series [11], the target named is T2, FXa (Homo sapiens, UniProt P00742).
T2 construct: purchased Haematologic Technologies (Essex Junction, VT, USA)
T2 sequence (P00742 235-488 limits assumed): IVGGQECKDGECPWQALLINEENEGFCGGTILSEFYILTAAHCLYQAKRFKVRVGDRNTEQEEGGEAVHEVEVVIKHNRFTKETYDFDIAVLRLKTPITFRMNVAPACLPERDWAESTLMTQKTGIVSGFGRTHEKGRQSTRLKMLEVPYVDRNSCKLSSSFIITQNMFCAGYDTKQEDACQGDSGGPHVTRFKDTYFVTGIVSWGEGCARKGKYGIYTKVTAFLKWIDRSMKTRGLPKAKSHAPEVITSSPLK
T2 sequence (P00742 41-179 limits assumed): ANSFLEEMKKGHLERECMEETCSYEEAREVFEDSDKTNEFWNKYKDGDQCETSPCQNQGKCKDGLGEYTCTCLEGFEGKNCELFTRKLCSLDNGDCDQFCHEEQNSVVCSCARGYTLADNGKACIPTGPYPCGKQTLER
Briefly: Chromogenic substrate assay, Ki determination, Factor Xa. The format is biochemical. Particulars: substrate S-2765 (Table 3); mean ± SD (n = 5). How it is done: as §4

Series [12] has as its target tPA (Homo sapiens, UniProt P00750). Briefly: Chromogenic substrate assay, Ki determination, tPA. The following applies: substrate S-2228. The format is biochemical. How it is done: as §4
The subject of series [13] is mouse platelet-rich plasma (PRP). Briefly: In vitro platelet aggregation induced by ADP. The format is cell-based. The following applies: ADP 10 µM. How it is done: as §1, §2, §3
Series [14] shares this test system. The series can be described thus: In vitro platelet aggregation induced by U46619. Particulars: U46619 6 µM. The format is cell-based. How it is done:
as §1, §2, §3

Series [15] deals with Protein Ca (Homo sapiens, UniProt P04070). Briefly: Chromogenic substrate assay, Ki determination, Protein Ca. In kind it is biochemical. The following applies: substrate S-2366. Here is the method: as §4
Chain of Protein Ca (P04070 212-461 limits assumed): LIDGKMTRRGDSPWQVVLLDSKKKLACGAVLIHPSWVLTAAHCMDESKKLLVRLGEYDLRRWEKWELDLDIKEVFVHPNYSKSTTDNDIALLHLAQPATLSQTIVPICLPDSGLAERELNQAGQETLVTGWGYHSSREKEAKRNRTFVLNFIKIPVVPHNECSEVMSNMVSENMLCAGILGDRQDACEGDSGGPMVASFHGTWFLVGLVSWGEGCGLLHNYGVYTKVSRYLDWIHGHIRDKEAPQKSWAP
Chain of Protein Ca (P04070 43-197 limits assumed): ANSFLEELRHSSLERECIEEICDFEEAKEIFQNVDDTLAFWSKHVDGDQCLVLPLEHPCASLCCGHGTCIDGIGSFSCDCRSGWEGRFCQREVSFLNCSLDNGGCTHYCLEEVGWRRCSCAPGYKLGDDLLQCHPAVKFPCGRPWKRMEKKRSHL
The test system of series [16] is C57BL/6 mice. Briefly: Ex vivo coagulation assay, aPTT. The format is in vivo, mouse. Particulars: intravenous, 38 to 193 µg/kg. How it is done:
as §5
Figure 4 Effects of compounds 1–4 on clotting and bleeding time. […] Fifteen minutes after the last administration, blood samples were collected and in vivo aPTT was measured. […] Accumulated bleeding times (including periods of re-bleeding) were recorded. […] Data are presented as means ± SD of three independent experiments. *p < 0.05 vs. vehicle alone, analyzed by one-way ANOVA, followed by Tukey multiple comparison testing.
Fifteen min after the administration of each compound or saline, blood was sampled, and plasma was obtained by centrifuging at 2,000 × g for 10 min at room temperature in order to measure prothrombin time (PT) and activated partial thromboplastin time (aPTT). The aPTT and PT were determined using a Thrombotimer (Behnk Elektronik, Norderstedt, Germany), according to the manufacturer’s instructions and as described previously. […] The clotting times were recorded. […]

The target in series [17] is Streptokinase (Homo sapiens). Briefly: Chromogenic substrate assay, Ki determination, Streptokinase. In kind it is biochemical. The following applies: substrate S-2251. Here is the method:
as §4

Series [18] deals with Plasmin (Homo sapiens, UniProt P00747). Briefly: Chromogenic substrate assay, Ki determination, Plasmin. In kind it is biochemical. Particulars: substrate S-2251. How it is done: as §4
Chain of Plasmin (P00747 581-810 limits assumed): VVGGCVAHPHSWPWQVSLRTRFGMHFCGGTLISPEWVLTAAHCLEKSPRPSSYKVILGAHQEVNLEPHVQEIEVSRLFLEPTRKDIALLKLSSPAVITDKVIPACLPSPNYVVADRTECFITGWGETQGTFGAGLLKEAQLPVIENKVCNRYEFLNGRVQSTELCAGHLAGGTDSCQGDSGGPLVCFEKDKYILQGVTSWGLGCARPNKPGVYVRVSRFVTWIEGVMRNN
Chain of Plasmin (P00747 97-580 limits assumed): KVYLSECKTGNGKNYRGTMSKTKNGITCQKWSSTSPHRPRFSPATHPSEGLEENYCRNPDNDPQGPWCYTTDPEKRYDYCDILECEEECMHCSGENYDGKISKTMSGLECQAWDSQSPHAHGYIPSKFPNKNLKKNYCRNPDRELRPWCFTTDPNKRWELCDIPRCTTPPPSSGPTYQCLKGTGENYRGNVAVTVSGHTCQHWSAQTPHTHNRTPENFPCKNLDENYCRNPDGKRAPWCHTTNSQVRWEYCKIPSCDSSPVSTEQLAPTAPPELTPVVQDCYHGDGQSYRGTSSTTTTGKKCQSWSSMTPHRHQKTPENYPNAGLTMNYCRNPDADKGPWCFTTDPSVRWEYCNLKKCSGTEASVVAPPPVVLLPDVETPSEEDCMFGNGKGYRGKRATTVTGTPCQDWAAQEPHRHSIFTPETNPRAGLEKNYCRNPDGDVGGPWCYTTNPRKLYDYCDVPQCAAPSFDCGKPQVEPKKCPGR

The values below come from article PMC5554137, “Evaluation of novel factor Xa inhibitors from Oxya chinensis sinuosa with anti-platelet aggregation activity” (Scientific Reports, 2017).

Where only a bound is given, the exact number is not on record here.

A word on the Ki: it is the dissociation constant of the complex between target and ligand, obtained from inhibition or displacement. A low value points to tighter binding.

Chain of Streptokinase (Homo sapiens) (P00747 581-810 limits assumed): as the sequence (P00747 581-810 limits assumed) above
Chain of tPA (P00750 36-562): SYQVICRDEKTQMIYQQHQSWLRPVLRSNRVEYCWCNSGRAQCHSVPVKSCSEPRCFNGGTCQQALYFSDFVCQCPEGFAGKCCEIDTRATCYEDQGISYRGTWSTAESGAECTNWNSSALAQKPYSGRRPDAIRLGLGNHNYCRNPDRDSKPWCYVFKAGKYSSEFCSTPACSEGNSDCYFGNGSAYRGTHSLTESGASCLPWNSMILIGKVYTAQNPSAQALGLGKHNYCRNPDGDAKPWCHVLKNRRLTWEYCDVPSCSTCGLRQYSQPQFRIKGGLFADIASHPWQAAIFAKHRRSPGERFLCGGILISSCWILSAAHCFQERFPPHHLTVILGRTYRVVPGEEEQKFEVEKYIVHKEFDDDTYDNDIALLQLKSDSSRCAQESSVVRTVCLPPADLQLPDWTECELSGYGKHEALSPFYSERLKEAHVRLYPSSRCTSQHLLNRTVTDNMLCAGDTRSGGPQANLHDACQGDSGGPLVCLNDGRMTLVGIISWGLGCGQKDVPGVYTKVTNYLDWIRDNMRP

Regarding `O=C(NC[C@H]1CN(c2ccc(N3CCOCC3=O)cc2)C(=O)O1)c1ccc(Cl)s1` [rivaroxaban], the “platelet aggregation induced by ADP, thrombin, or U46619” value in series [1] was “did not affect”. In addition, the bleeding times result was “not significantly affected” in series [2] and “dose-dependently prolonged” in series [4]. Moreover, the generation of thrombin result in series [3] is given as “prolonged”.

Take `CCCCS(=O)(=O)N[C@@H](Cc1ccc(OCCCCC2CCNCC2)cc1)C(=O)O` [tirofiban]: the “time to growth of large thrombi” value in [5] came to 61.1 ± 5.1 min.

As for `CC(=O)N/C=C/c1ccc2c(c1)O[C@H](c1ccc(O)c(O)c1)[C@@H](NC(C)=O)O2` [Compound 5, (2 R,3 S)-2-(3′,4′-dihydroxyphenyl)-3-acetylamino-7-(N-acetyl-2″-aminethylene)-1,4-benzodioxane], the thrombin-induced platelet aggregation result in series [6] was “did not affect”. Besides, the Ki in series [7], in series [8], in series [10], in series [11], in [12] and in [15] was over 250 µM throughout. Also, the Ki in series [17] and in series [18] was over 250 µM in each case. The “blood clotting time in vivo (anticoagulant effect)” value in series [9] is listed as “not”. In [13], the “platelet aggregation induced by ADP” value is “did not affect”. Also, the “platelet aggregation induced by U46619” value in [14] was “did not affect”. Also, the “activated partial thromboplastin time (aPTT), ex vivo” value in series [16] is recorded as “did not affect”.
